According to the supplement of paper PMC11208160:

test: recombinant UMI read abundance after kanamycin selection (control-corrected) (log10(CPM+1)); higher = more efficient recombination; extreme values may be limits of the assay; sequences stand for … in AGTGCAGAGAAAATCGGCCAGTTTTCTCTGCCTGCAGTCCGCATGCCGTGGGACCCCTTGGGTTCTAACCTGTTGCCTAGATTTATGCAGCGGACTGCCTTTCTCCCAAAGTGATAAACCGG…AGGTTGGTTTCACT; site = the 11-nt donor
Outline: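 Two replicates each of selected and unselected plating were used in this pooled Escherichia coli screen of donor and donor-binding-loop pairs for the IS621 bridge recombinase. Selection was with IPTG (0.07 mM) and kanamycin. Counts of recombinant UMIs, amplified across the donor–target junction, were converted to CPM, averaged, scaled by control-derived factors and reported as log10(CPM+1).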
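Note: IS621 bridge recombinase in Escherichia coli cells against a fixed T5 target plasmid.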

Sequence	recombinant UMI read abundance (log10)
ACTAATGCATGGACCGGTTTTCCCGGTAATCCGTATTTGGT (site ACTAATGCTAC)	1.88
ACTAATGCATGGACCGGTTTTCCCGGTAATCCGTATTTGGT (site ACTACTGCTAC)	0.116
ACTAATGCATGGACCGGTTTTCCCGGTAATCCGTATTTGGT (site ACTAGTGCTAC)	0.00699
ACTAATGCATGGACCGGTTTTCCCGGTAATCCGTATTTGGT (site ACTATTGCTAC)	0.568
ACTACAACATGGACCGGTTTTCCCGGTAATCCGTATTTGAG (site ACTAAAACTCT)	0.00762
ACTACAACATGGACCGGTTTTCCCGGTAATCCGTATTTGAG (site ACTACAACTCT)	1.22
ACTACAACATGGACCGGTTTTCCCGGTAATCCGTATTTGAG (site ACTAGAACTCT)	0.216
ACTACAACATGGACCGGTTTTCCCGGTAATCCGTATTTGAG (site ACTATAACTCT)	0.494
ACTAGAACATGGACCGGTTTTCCCGGTAATCCGTATTTGAA (site ACTAGAACTAT)	0
ACTAGAACATGGACCGGTTTTCCCGGTAATCCGTATTTGAA (site ACTAGAACTCT)	0
ACTAGAACATGGACCGGTTTTCCCGGTAATCCGTATTTGAA (site ACTAGAACTGT)	0
ACTAGAACATGGACCGGTTTTCCCGGTAATCCGTATTTGAA (site ACTAGAACTTT)	1.45
ACTAGAACATGGACCGGTTTTCCCGGTAATCCGTATTTGAC (site ACTAGAACTAT)	0.00676
ACTAGAACATGGACCGGTTTTCCCGGTAATCCGTATTTGAC (site ACTAGAACTCT)	0.0218
ACTAGAACATGGACCGGTTTTCCCGGTAATCCGTATTTGAC (site ACTAGAACTGT)	2.13
ACTAGAACATGGACCGGTTTTCCCGGTAATCCGTATTTGAC (site ACTAGAACTTT)	0.322
ACTAGAACATGGACCGGTTTTCCCGGTAATCCGTATTTGAT (site ACTAGAACTAT)	1.24
ACTAGAACATGGACCGGTTTTCCCGGTAATCCGTATTTGAT (site ACTAGAACTCT)	0.0111
ACTAGAACATGGACCGGTTTTCCCGGTAATCCGTATTTGAT (site ACTAGAACTGT)	0

Sequence	recombinant UMI read abundance (log10)
ACTAGAACATGGACCGGTTTTCCCGGTAATCCGTATTTGAT (site ACTAGAACTTT)	0.0117
ACTAGATCATGGACCGGTTTTCCCGGTAATCCGTATTTGAG (site ACTAGAACTCT)	0.00628
ACTAGATCATGGACCGGTTTTCCCGGTAATCCGTATTTGAG (site ACTAGACCTCT)	0.0156
ACTAGATCATGGACCGGTTTTCCCGGTAATCCGTATTTGAG (site ACTAGAGCTCT)	0.00838
ACTAGATCATGGACCGGTTTTCCCGGTAATCCGTATTTGAG (site ACTAGATCTCT)	2.52
ACTAGTACATGGACCGGTTTTCCCGGTAATCCGTATTTGAG (site ACTAGAACTCT)	0.692
ACTAGTACATGGACCGGTTTTCCCGGTAATCCGTATTTGAG (site ACTAGCACTCT)	0.0245
ACTAGTACATGGACCGGTTTTCCCGGTAATCCGTATTTGAG (site ACTAGGACTCT)	0.0174
ACTAGTACATGGACCGGTTTTCCCGGTAATCCGTATTTGAG (site ACTAGTACTCT)	1.35
ACTAGTGCATGGACCGGTTTTCCCGGTAATCCGTATTTGGG (site ACTAGTGCTAC)	0.0186
ACTAGTGCATGGACCGGTTTTCCCGGTAATCCGTATTTGGG (site ACTAGTGCTCC)	0.376
ACTAGTGCATGGACCGGTTTTCCCGGTAATCCGTATTTGGG (site ACTAGTGCTGC)	0
ACTAGTGCATGGACCGGTTTTCCCGGTAATCCGTATTTGGG (site ACTAGTGCTTC)	0.021
ACTAGTGCATGGACCGGTTTTCCCGGTAATCCGTATTTGTT (site ACTAGTGCTAA)	1.35
ACTAGTGCATGGACCGGTTTTCCCGGTAATCCGTATTTGTT (site ACTAGTGCTAC)	0.00478
ACTAGTGCATGGACCGGTTTTCCCGGTAATCCGTATTTGTT (site ACTAGTGCTAG)	1.16
ACTAGTGCATGGACCGGTTTTCCCGGTAATCCGTATTTGTT (site ACTAGTGCTAT)	0.242
ACTATAACATGGACCGGTTTTCCCGGTAATCCGTATTTGAG (site ACTAAAACTCT)	0.00383
